The text below walks through data of patent US20030054549A1, “Stem cell reinforcing material” (priority 2000, published 2003).

For series [1], the system named is bone marrow hematopoietic stem cells. Kind of series: Example 4: mouse spleen colony method with radiation exposure and bone marrow transplant, female rats, mixture vs genistein vs 17β estradiole. The class given is in vivo. Conditions: female ICR, 8 Gy; for spleen weight after radiation exposure per 10 g body weight: day 10 after bone marrow transplant. The method, then: They were reared with five rats in each group.
With the exception of comparative groups 8 and 9, bone marrow transplant was performed 24 hours after radiation exposure on the rats of comparative groups 10 and 11 as well as those of experimental groups 7, 8, and 9.
Body weight of all rats was determined when rearing was started, after one week, and after two weeks and before bone marrow transplant and on day 5, day 7 and day 10 after transplant.

The subject of series [2] is bone marrow hematopoietic cells and reproductive stem cells. How it is done:
1) Healthy male rats of equal body weight in each group were reared as the sample (male ICR) (six weeks old). They were reared with 10 rats each in comparative groups 3, 4 and 5 as well as experimental group 4 and 5 rats in experimental group 3.
The rats of comparative groups 4 and 5 as well as experimental groups 3 and 4 were systemically exposed one time only to a dose of 8 Gy after three weeks of rearing.
Bone marrow transplant was performed on the rats of each group 24 hours after radiation exposure. In this case, the femur of a donor rat of the same species was cut out. A small piece was cut off from both ends of the femur with a clean bench. Once 1 ml RPMI medium 1640 medium containing 10% antibiotic-antimycotic was injected with a syringe from one end through the medullary cavity, it was pushed into a test tube. The marrow cell count was adjusted to 10^5/ml and 0.5 ml was injected from a caudal vein. The donor rat had been systemically exposed to 2 Gy radiation and reared for three weeks on feed of 1 wt % of the koji mold soybean fermentation and cultivation product added to ordinary food.
All of the rats were sacrificed, the spleen was excised, spleen weight and the number of spleen colonies formed were determined, and the […] were likewise excised and testicle weight was determined after determining body weight on day 7 after bone marrow transplant.
Body weight of all rats was determined before bone marrow transplant and on day 7 after transplant.

SMILES strings stand for the structures.

As for `O=c1c(-c2ccc(O)cc2)coc2cc(O)cc(O)c12` [genistein], the “spleen weight after radiation exposure per 10 g body weight” value (from here on “spleen weight … per 10 g body weight”) in series [1] (30 mg/kg body weight in feed, vs comparative groups 9 and 10) is “significantly higher”. In addition, the “number of spleen colonies that formed following transplant after radiation exposure” value in series [1] (30 mg/kg body weight in feed, day 10 after transplant, vs comparative groups 10 and 11) is listed as “significantly higher”. In addition, the body weight entry in series [1] (30 mg/kg body weight in feed, judging from day 7 after radiation exposure) is listed as “tendency toward an increase”.

For the compound `CN(C)CCOc1ccc(/C(=C(/CCCl)c2ccccc2)c2ccccc2)cc1` [toremifen], in series [2] (male ICR, 30 mg/kg body weight in feed, 8 Gy, day 7 after bone marrow transplant, compared to unexposed comparative group 3), the “spleen weight … per 10 g body weight” value is listed as “somewhat lower value than the others”. The “testicle weight after radiation exposure per 10 g body weight” value in series [2] (male ICR, 30 mg/kg body weight in feed, 8 Gy, day 7 after transplant, compared to unexposed comparative group 3) is reported as “likewise lower”. The “toxicity (spleen weight and body weight lower)” value in series [2] (rat, in vivo, 30 mg/kg) is listed as “considerably stronger than isoflavone aglycone”.

Turning to `C[C@]12CC[C@@H]3c4ccc(O)cc4CC[C@H]3[C@@H]1CC[C@@H]2O` [17β estradiole], the “spleen weight … per 10 g body weight” value in series [1] (10 μg/kg body weight in feed) was “lower values than experimental groups 7, 8 and 9”. The spleen colony formation result in series [1] (10 μg/kg body weight in feed, day 10 after transplant) was “no augmentation whatsoever”.
